In patent publication US20230257396A1, “MACROCYCLES AND THEIR USE” (BLOSSOMHILL THERAPEUTICS, INC., priority 2020, published 2023):

Columns and labels:
Assay in all cases: KINOMEscan kinase binding assay (Eurofins/DiscoveRx), % Ctrl
kinases [1] = biological target: T1, kinases (Homo sapiens, UniProt P00519, F317I); settings: 1 μM; for % Ctrl, ABL1(F317I)-nonphosphorylated: target ABL1(F317I)-nonphosphorylated; for % Ctrl, ABL1(F317I)-phosphorylated: target ABL1(F317I)-phosphorylated
T1 construct: purchased Eurofins/DiscoveRx; host or cells: E. coli BL21-derived host (T7 phage display) for most kinases; HEK-293 for the rest
Outline: (§1)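 Read-out is qPCR of kinase eluted from ligand-coated streptavidin beads after 1 h room-temperature competition with test compound. Values are % Ctrl at the tested concentration, lower meaning tighter binding.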

kinases [2] = biological target: T2, kinases (Homo sapiens, UniProt P00519, F317L); settings: 1 μM; for % Ctrl, ABL1(F317L)-nonphosphorylated: target ABL1(F317L)-nonphosphorylated; for % Ctrl, ABL1(F317L)-phosphorylated: target ABL1(F317L)-phosphorylated
T2 construct: purchased Eurofins/DiscoveRx; host or cells: E. coli BL21-derived host (T7 phage display) for most kinases; HEK-293 for the rest
Outline: as §1

kinases [3] = biological target: T3, kinases (Homo sapiens, UniProt P00519, H396P); settings: 1 μM; for % Ctrl, ABL1(H396P)-nonphosphorylated: target ABL1(H396P)-nonphosphorylated; for % Ctrl, ABL1(H396P)-phosphorylated: target ABL1(H396P)-phosphorylated
T3 construct: purchased Eurofins/DiscoveRx; host or cells: E. coli BL21-derived host (T7 phage display) for most kinases; HEK-293 for the rest
Outline: as §1

kinases [4] = biological target: T4, kinases (Homo sapiens, UniProt P09619); settings: target PDGFRB; 1 μM
T4 construct: purchased Eurofins/DiscoveRx; host or cells: E. coli BL21-derived host (T7 phage display) for most kinases; HEK-293 for the rest
T4 sequence (P09619 33-1106): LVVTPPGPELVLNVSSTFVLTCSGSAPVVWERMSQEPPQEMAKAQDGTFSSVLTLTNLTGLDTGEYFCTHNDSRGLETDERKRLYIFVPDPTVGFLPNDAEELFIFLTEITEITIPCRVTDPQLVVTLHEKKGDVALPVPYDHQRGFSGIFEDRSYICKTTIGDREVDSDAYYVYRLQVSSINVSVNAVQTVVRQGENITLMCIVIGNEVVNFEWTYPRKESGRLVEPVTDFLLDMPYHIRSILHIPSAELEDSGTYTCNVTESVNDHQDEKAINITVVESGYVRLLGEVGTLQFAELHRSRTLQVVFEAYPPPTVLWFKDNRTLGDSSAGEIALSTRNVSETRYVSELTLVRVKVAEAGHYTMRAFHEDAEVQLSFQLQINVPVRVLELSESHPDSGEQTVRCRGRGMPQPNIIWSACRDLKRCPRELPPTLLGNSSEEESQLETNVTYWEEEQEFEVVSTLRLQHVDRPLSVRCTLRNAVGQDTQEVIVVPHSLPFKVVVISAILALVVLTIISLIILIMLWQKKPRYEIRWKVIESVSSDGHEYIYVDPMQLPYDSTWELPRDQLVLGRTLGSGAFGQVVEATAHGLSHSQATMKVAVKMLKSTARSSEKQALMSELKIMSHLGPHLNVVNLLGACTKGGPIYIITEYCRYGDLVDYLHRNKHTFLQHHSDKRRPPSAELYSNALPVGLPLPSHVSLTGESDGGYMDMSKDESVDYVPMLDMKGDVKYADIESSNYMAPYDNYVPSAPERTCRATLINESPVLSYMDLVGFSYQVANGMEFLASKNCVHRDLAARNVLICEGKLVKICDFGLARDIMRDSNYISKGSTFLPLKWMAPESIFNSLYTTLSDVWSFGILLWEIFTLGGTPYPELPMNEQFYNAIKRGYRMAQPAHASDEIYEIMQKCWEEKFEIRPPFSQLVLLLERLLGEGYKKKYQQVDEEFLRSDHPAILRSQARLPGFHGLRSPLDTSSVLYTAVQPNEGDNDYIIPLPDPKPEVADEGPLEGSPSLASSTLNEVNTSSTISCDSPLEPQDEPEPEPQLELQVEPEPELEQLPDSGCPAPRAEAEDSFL
Outline: as §1

kinases [5] = biological target: T5, kinases (Homo sapiens, UniProt P36888, D835H); settings: target FLT3(D835H); 1 μM
T5 construct: purchased Eurofins/DiscoveRx; host or cells: E. coli BL21-derived host (T7 phage display) for most kinases; HEK-293 for the rest
T5 sequence (P36888 27-993 D835H): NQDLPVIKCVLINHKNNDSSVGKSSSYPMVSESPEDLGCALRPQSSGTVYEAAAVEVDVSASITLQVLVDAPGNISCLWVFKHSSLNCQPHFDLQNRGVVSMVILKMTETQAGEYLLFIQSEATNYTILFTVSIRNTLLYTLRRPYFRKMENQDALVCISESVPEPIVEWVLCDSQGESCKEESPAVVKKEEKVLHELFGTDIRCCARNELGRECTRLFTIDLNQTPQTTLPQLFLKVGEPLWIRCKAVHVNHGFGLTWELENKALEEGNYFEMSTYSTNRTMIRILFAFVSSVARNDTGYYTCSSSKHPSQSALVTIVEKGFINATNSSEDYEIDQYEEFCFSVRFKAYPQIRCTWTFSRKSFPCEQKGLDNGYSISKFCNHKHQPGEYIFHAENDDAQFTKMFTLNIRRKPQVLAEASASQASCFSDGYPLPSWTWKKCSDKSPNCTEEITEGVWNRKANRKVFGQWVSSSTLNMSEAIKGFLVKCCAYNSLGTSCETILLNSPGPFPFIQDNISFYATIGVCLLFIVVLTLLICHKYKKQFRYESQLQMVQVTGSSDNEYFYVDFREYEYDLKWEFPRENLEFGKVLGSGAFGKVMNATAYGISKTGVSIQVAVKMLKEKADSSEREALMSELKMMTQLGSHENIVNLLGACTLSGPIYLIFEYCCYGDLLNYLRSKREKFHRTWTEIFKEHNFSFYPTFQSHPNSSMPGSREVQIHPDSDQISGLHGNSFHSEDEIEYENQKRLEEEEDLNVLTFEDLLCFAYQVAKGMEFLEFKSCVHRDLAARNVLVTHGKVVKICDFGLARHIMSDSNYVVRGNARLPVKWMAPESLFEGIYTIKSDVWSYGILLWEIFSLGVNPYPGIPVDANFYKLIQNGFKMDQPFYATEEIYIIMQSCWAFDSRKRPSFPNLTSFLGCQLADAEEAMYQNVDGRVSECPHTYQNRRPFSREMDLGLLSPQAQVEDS
Outline: as §1

| Compound | % Ctrl, ABL1(F317I)-nonphosphorylated (kinases [1]) | % Ctrl, ABL1(F317I)-phosphorylated (kinases [1]) | % Ctrl, ABL1(F317L)-nonphosphorylated (kinases [2]) | % Ctrl, ABL1(F317L)-phosphorylated (kinases [2]) | % Ctrl, ABL1(H396P)-nonphosphorylated (kinases [3]) | % Ctrl, ABL1(H396P)-phosphorylated (kinases [3]) | % Ctrl, PDGFRB (kinases [4]) | % Ctrl, FLT3(D835H) (kinases [5]) |
| --- | --- | --- | --- | --- | --- | --- | --- | --- |
| Cc1cc2c([nH]1)/C=C1\C(=O)Nc3ccc(cc31)-c1c(noc1C)CNCCN(C)C2=O [Ex. 139, [3a(4)Z]-6,9,16-trimethyl-10,11,12,13-tetrahydro-2H-1,17-(ethanediylidene)[1,2]oxazolo[4,3-m]dipyrrolo[3,2-f:3′,4′-i][1,4]diazacyclopentadecine-3,8(5H,9H)-dione] | 72 % Ctrl | 60 % Ctrl | 48 % Ctrl | 39 % Ctrl | 2 % Ctrl | 9.5 % Ctrl | 73 % Ctrl | 14 % Ctrl |
| Cc1cc2c([nH]1)/C=C1\C(=O)Nc3ccc(cc31)-c1c(C)nn(C)c1COCCN(C)C2=O [Ex. 146, [3a(4)Z]-6,9,14,16-tetramethyl-10,11,13,14-tetrahydro-2H-1,17-(ethanediylidene)pyrazolo[4,3-m]dipyrrolo[3,2-f:3′,4′-i][1,4]oxazacyclopentadecine-3,8(5H,9H)-dione] | 100 % Ctrl | 100 % Ctrl | 89 % Ctrl | 89 % Ctrl | 50 % Ctrl | 80 % Ctrl | 96 % Ctrl | 5.7 % Ctrl |
| Cc1nn(C)c2c1-c1ccc3c(c1)/C(=C/c1[nH]ccc1C(=O)N(C)CCCO2)C(=O)N3 [Ex. 150, [3a(4)Z]-9,14,16-trimethyl-10,11,13,14-tetrahydro-2H-1,17-(ethanediylidene)pyrazolo[4,3-m]dipyrrolo[3,2-f:3′,4′-i][1,4]oxazacyclopentadecine-3,8(5H,9H)-dione] | 95 % Ctrl | 88 % Ctrl | 87 % Ctrl | 82 % Ctrl | 100 % Ctrl | 100 % Ctrl | 96 % Ctrl | 62 % Ctrl |

Results, then the compound that gave them:

| % Ctrl, ABL1(F317I)-nonphosphorylated (kinases [1]) | % Ctrl, ABL1(F317I)-phosphorylated (kinases [1]) | % Ctrl, ABL1(F317L)-nonphosphorylated (kinases [2]) | % Ctrl, ABL1(F317L)-phosphorylated (kinases [2]) | % Ctrl, ABL1(H396P)-nonphosphorylated (kinases [3]) | % Ctrl, ABL1(H396P)-phosphorylated (kinases [3]) | % Ctrl, PDGFRB (kinases [4]) | % Ctrl, FLT3(D835H) (kinases [5]) | Compound |
| --- | --- | --- | --- | --- | --- | --- | --- | --- |
| 86 % Ctrl | 100 % Ctrl | 69 % Ctrl | 75 % Ctrl | 69 % Ctrl | 82 % Ctrl | 95 % Ctrl | 73 % Ctrl | Cc1cc2c([nH]1)/C=C1\C(=O)Nc3cc(Cl)c(cc31)OCCO[C@@H](C(=O)N1CCN(C)CC1)CN(C)C2=O [Ex. 138, [7R,16a(17)Z]-19-chloro-2,5-dimethyl-7-(4-methylpipearazine-1-carbonyl)-6,7,9,10-tetrahydro-1H-12,14-(ethanediylidene)dipyrrolo[3,2-i:3′,4′-l][1,4,7]dioxazacyclopentadecine-4,16(5H,15H)-dione] |
| 46 % Ctrl | 26 % Ctrl | 17 % Ctrl | 17 % Ctrl | 1.6 % Ctrl | 11 % Ctrl | 32 % Ctrl | 0.8 % Ctrl | CN1CCOCCOc2cc3c(cc2Cl)NC(=O)/C3=C\c2[nH]ccc2C1=O [Ex. 143, [16a(17)Z]-19-chloro-2,5-dimethyl-6,7,9,10-tetrahydro-1H-12,14-(ethanediylidene)dipyrrolo[3,2-i:3′,4′-l][1,4,7]oxathiazacyclopentadecine-4,16(5H,15H)-dione] |
| 20 % Ctrl | 37 % Ctrl | 4.3 % Ctrl | 18 % Ctrl | 0.8 % Ctrl | 16 % Ctrl | 0.5 % Ctrl | 0.3 % Ctrl | CN1CCSCCOc2cc3c(cc2Cl)NC(=O)/C3=C\c2[nH]ccc2C1=O [Ex. 153] |
